Measured values taken from patent publication US20240197704A1, “TREATMENT METHODS AND CO[…]” (Johns Hopkins University, priority 2021, published 2024).
“Also recorded” adds a separate entry of the source.

How the values were obtained:
[1] = test system: patient with pathogenic SYNGAP1 variant; assay: VB-MAPP assessment for verbal and social skills (case study); format: in vivo, human; set-up: key to VB-MAPP Communication: Manding / VB-MAPP Communication: Pointing/gesturing to preferred items / VB-MAPP Communication: Listener Responding-reinforcing/preferred items / VB-MAPP Communication: PECS-Phase 1 / VB-MAPP Cognitive: Motor imitation / VB-MAPP Cognitive: Receptive commands / VB-MAPP Social: Responds to name / VB-MAPP Social: Parallel play / VB-MAPP Social: Independent play / VB-MAPP Health: Feeding / VB-MAPP Behavior: Functional Communication training / VB-MAPP Behavior: Waiting: ↑ = improvement in skill from prior assessment; ↓ = worsening in skill from prior assessment
Method: (§1) A […] […] daughter with pathogenic SYNGAP1 variant was trialed on low doses of PMP.
(§2) Clinical data from physician's clinic notes; genetic testing reports; developmental scores from occupational therapy, physical therapy, speech and language therapy evaluations; and applied behavioral analysis (ABA) reports were reviewed.
(§3) Low-dose PMP at 0.2 mg every night was started when they were 25 months of age. […] The Verbal Behavior Milestones Assessment and Placement Program (VB-MAPP) which is an assessment and skills-tracking system to assess the language, learning and social skills of children with autism or other developmental disabilities was used to evaluate their language and other related social skills. […] Patients' baseline VB-MAPP score […] (prior to starting PMP) was 7/45, which improved to 10/45 at 3 months post PMP and then to 17.5/45 at 10 and 13 months post PMP with 37.2% of developmental goals mastered. A follow-up overnight EEG was done […]. […] Multifocal epileptiform discharges, which were rarely observed in their prior EEGs, were noted over the temporal and central head regions bilaterally and occurred independently. At times the centro-temporal discharges occurred synchronously. These discharges were most prevalent in the N2 sleep, which increased in prevalence in subsequent N2 sleep cycles (FIG. 3). Finally, similar to dysregulated gamma seen during behavioral transition points from wake to NREM sleep in Syngap1^+/− mice, we also observed gamma dysregulation in our patient's pre-PMP EEG, where gamma power was increased during NREM when transitioning from REM and, therefore, presenting a positive slope (FIG. 4).

[2] = test system: patient with pathogenic SYNGAP1 variant; assay: Case study of low-dose PMP: tolerability, therapy evaluations, sleep, clinical seizures; format: in vivo, human
Method: as §1
The child has now been on low-dose PMP (<2 mg daily) for over one year. We here discuss the safety profile, changes in the electroencephalographic (EEG) features and clinical features, especially in the developmental profile and sleep pre-and-post PMP. We hypothesize that PMP at doses lower than typically used as an antiseizure medication will be safe in patients with SYNGAP1-DEE and help normalize sleep and behavioral disorders. Almost 50% of SYNGAP1-DEE related epilepsies are refractory to treatment from the very onset and currently very few children are prescribed PMP even for seizure control such that only 1 of 57 patients in a cohort study was documented to have been on it(3).
as §2, §3

[3] = test system: patient with pathogenic SYNGAP1 variant; assay: EEG, hypnogram and quantitative EEG analysis pre- and post-PMP (case study); format: in vivo, human
Method: EEGs used for analysis were recorded with a 10-20 electrode placement system. EEGs were reviewed in Persyst (version 14, Persyst Development Corporation, Prescott, AZ). Long-duration continuous EEGs (≥16 h) that included awake and sleep states were reviewed in non-overlapping 10-second epochs. Each epoch was analyzed for the presence or absence of abnormalities and were given a binary score (1=present, 0=absent). The findings that were scored were abnormal slowing (generalized or focal, FIGS. 3A, B) and epileptiform discharges (generalized or focal, FIGS. 3C,D).
In order to characterize and quantify the clustered nature of spikes, hierarchical clustering analysis was implemented. Hierarchical clustering analysis groups data points based on Euclidean distance and the size of clusters were determined by the clustering coefficient. Average number of spike events in a cluster was computed for a sequence of increasing clustering coefficients, and the progressions for spike subtypes were compared. The rate at which the average spike events increased with respect to clustering coefficient and the size characterized the clustered nature of spike events.
Sleep stages were manually scored in 10 second epochs. FFT was applied to 10 second epochs in Sirenia Sleep software (Pinnacle Tech. Inc, Kansas USA) for further EEG analysis. […] To analyze the presence of similar gamma dysregulation in REM and NREM transition points, linear regression analysis was done on 10 min segment of the REM to NREM transition point

[4] = test system: juvenile HET+/- (Syngap1+/-) mice; assay: 24 h vEEG quantitative EEG (gamma slope, delta power), with or without 6 h sleep deprivation; format: in vivo; conditions: for delta power during NREM: one-way ANOVA
Method: (§4) 24 h tethered vEEG recording was performed for Het+/− mice and their age- and sex matched WT littermates at P21-P30, followed by telemetric vEEG for 24 h with 6 h SD at P35. Quantitative EEG (qEEG) analysis included the frequency bands: delta (0.5-4.0 Hz), theta(5.5-8.0 Hz), alpha (8.0-13.0 Hz), beta (13.0-30 Hz), and gamma (35-50 Hz). Linear regression of gamma frequency power during transition states from wake to sleep was quantified. Spike frequency over 24 h EEG was scored by a blind reviewer based on previously published parameters. The effect of low-dose PMP (2 mg/kg, IP, BD), an AMPA receptor antagonist, on these potential qEEG biomarkers was investigated. Additionally, movement analysis was performed using infrared cameras to trace fast-active movements between 5 am-7 am. 24 h telemetric vEEG was recorded during marble burying and novel object behavioral tests.

[5] = test system: juvenile HET+/- (Syngap1+/-) mice; assay: Movement analysis of fast-active events with infrared cameras; format: in vivo; conditions: 5-7 am, dark cycle; HET+/- with low-dose PMP vs WT+/+
Method: as §4

[6] = test system: juvenile HET+/- (Syngap1+/-) mice; assay: Spike frequency over 24 h EEG; format: in vivo; conditions: low-dose PMP
Method: as §4

PV+ interneurons = assay: AMPA insertion and hyperexcitable phenotype in SynGAP1 mice; format: in vivo; conditions: low dose
Syngap1+/- mice = conditions: cited from earlier work
[7] = 3 months post PMP (dose 0.2 mg)
[8] = 10 months post PMP (dose 0.3 mg)
[9] = 6 months post-initiation, once daily low-dose PMP at bedtime

N#Cc1ccccc1-c1cc(-c2ccccn2)cn(-c2ccccc2)c1=O [PMP, 3-(2-cyanophenyl)-5-(2-pyridyl)-1-phenyl-1,2-dihydropyridin-2-one]
VB-MAPP Behavior: Functional Communication training [1, 7]: ↑
VB-MAPP Behavior: Waiting [1, 7]: ↑
VB-MAPP Cognitive: Motor imitation [1, 7]: ↑
VB-MAPP Cognitive: Receptive commands [1, 7]: ↑
VB-MAPP Communication: Listener Responding-reinforcing/preferred items [1, 7]: ↑
VB-MAPP Communication: Manding [1, 7]: ↑
VB-MAPP Communication: PECS-Phase 1 [1, 7]: ↑
VB-MAPP Communication: Pointing/gesturing to preferred items [1, 7]: ↑
VB-MAPP Health: Feeding [1, 7]: ↑
VB-MAPP Social: Independent play [1, 7]: ↑
VB-MAPP Social: Parallel play [1, 7]: ↑
VB-MAPP Social: Responds to name [1, 7]: ↑
VB-MAPP score ([1]; 3 months post PMP, baseline prior to PMP 7/45): 10/45
developmental goals mastered ([1]; 10 and 13 months post PMP): 37.2%
VB-MAPP Behavior: Functional Communication training [1, 8]: ↑
VB-MAPP Behavior: Waiting [1, 8]: ↑
VB-MAPP Cognitive: Motor imitation [1, 8]: ↑
VB-MAPP Cognitive: Receptive commands [1, 8]: ↑
VB-MAPP Communication: Listener Responding-reinforcing/preferred items [1, 8]: ↓
VB-MAPP Communication: Manding [1, 8]: ↓
VB-MAPP Communication: PECS-Phase 1 [1, 8]: ↑
VB-MAPP Communication: Pointing/gesturing to preferred items [1, 8]: ↑
VB-MAPP Health: Feeding [1, 8]: ↑
VB-MAPP Social: Independent play [1, 8]: ↑
VB-MAPP Social: Parallel play [1, 8]: ↑
VB-MAPP Social: Responds to name [1, 8]: ↑
tolerability ([2]; 1.5 mg daily at bed-time): tolerating it well
fine and visual motor skills (occupational therapy evaluation) [2, 9]: improvement in their fine and visual motor skills
independent walking [2, 9]: started walking independently
tone and strength (physical therapy evaluation) [2, 9]: significant improvements in their tone and strength
control of clinical seizures ([2]; low dose PMP): not helpful in controlling their clinical seizures
motor, cognition, communication, social and behavior domains ([2]; low doses 0.2 mg->0.3 mg per day at bedtime): significant improvements
tolerability / side effects ([2]; low-dose PMP 0.2 mg, then 0.3 mg every night, started): tolerated the PMP well without any side effects; also recorded: without significant side-effects
sleep quality (parent report) ([2]; once daily low-dose PMP at bedtime): improvement in sleep quality with fewer night time awakenings
prevalence of occipital intermittent rhythmic delta activity (OIRDA) ([3]; follow-up overnight EEG, post-PMP vs pre-PMP, wake and REM sleep): overall decrease in the prevalence of the OIRDA; also recorded: significantly reduced post-PMP
effect on epileptiform discharges ([3]; low-dose PMP): did not have any significant effect on the epileptiform discharges
prevalence of focal epileptiform discharges ([3]; post PMP vs pre PMP EEG): more prevalent post PMP compared to pre PMP
gamma dysregulation: gamma slope at REM to NREM transitions ([3]; post-PMP EEG vs pre-PMP EEG, same patient): significantly alleviated; also recorded: significantly rescued
delta power during NREM ([4]; 24 h baseline vEEG, all groups incl. HET+/- PMP): did not show notable statistical significance across all groups
delta power during NREM ([4]; 24 h vEEG with 6 h SD, all groups): did not show notable statistical significance across all groups
gamma slope at behavioral transition points, wake to sleep ([4]; low-dose PMP 2 mg/kg, IP, BD, juvenile HET+/-, paired t-test p<0.05): significantly reduced the gamma slope and rescued the gamma homeostasis
gamma slope at sleep transition points after 6 h SD ([4]; low-dose PMP 2 mg/kg, IP, sleep deprived HET+/-, paired t-test p<0.05): rescued gamma homeostasis by decreasing the most dominant slope
level of fast active events (hyperactivity) [5]: this relation was lost after the low-dose PMP administration
cortical spike frequency [6]: reduced spike frequency in high spiking HET^+/− mice however group data was not statistically significant
excessive AMPA insertion and hyperexcitable phenotype (PV+ interneurons): rescue the excessive AMPA insertion and hyperexcitable phenotype
gamma dysregulation (Syngap1+/- mice; PMP-treated Syngap1+/- mice): significant rescue of the gamma dysregulation
interictal spikes suppression (Syngap1+/- mice; epileptic mice, low dose): weaker effect on interictal spikes suppression
